Reference: US20250206761A1, “HALOINDOLE MACROCYCLIC COMPOUNDS FOR THE TREATMENT OF CANCER” (Hoffmann-La Roche Inc., priority 2022, published 2025)
pIC50: −log10 of the molar value.

Tests used:
[1] = tested on: NCI-H358 (ATCC-CRL5807) cells; experiment: Cell viability assay, G12C (NCI-H358); format: cell-based, human; settings: Homo sapiens; KRAS cell viability, NCI-H358, 72 hrs, Cell Counting Kit-8
Procedure, shortened: (§1)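 IC50 derived by 4-parameter sigmoidal fit of CCK-8 signal (OD450−OD650, 2 h development) after 72 h compound exposure in 0.5% DMSO. Seeding density was 5,000 cells/well for NCI-H358 and 2,000 cells/well for AGS and SW620, plated overnight before dosing.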

[2] = tested on: SW620 (ATCC-CCL-227); experiment: Cell viability assay, G12V (SW620); format: cell-based, human; settings: Homo sapiens, SW-620; KRAS cell viability, SW620, 72 hrs, Cell Counting Kit-8
Procedure, shortened: as §1

[3] = target: KRAS G12C-BRAF complex (Homo sapiens (Human), UniProt P01116+P62937, G12C); experiment: KRAS-BRAF with CYPA (500 nM) interaction assay (TR-FRET), G12C; format: biochemical
[4] = target: KRAS G12D binding to BRAF (Homo sapiens (Human), UniProt P01116+P62937, G12D); experiment: KRAS-BRAF with CYPA (500 nM) interaction assay (TR-FRET), G12D; format: biochemical
[5] = tested on: phosphorylation of ERK, KRAS G12C in NCJ-H358 cells; experiment: pERK inhibition assay, KRAS G12C; format: cell-based, human; settings: Homo sapiens, 4 hours
Procedure, shortened: (§2)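 Cells in RPMI-1640 with 10% FBS were plated overnight (NCJ-H358 30,000, AGS 20,000, SW620 30,000 cells/well), then exposed to compounds in 0.5% DMSO for 4 h. Fixed, methanol-permeabilized cells were probed for pERK by HRP-based in-cell ELISA with TMB, OD450; IC50 from 4-parameter sigmoidal fit.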

[6] = tested on: phosphorylation of ERK, KRAS G12D in AGS cells; experiment: pERK inhibition assay, KRAS G12D; format: cell-based, human; settings: Homo sapiens, 4 hours
Procedure, shortened: as §2

Sequence of KRAS G12D binding to BRAF (P01116-2 other isoform, or with tags, fused parts or gaps G12D): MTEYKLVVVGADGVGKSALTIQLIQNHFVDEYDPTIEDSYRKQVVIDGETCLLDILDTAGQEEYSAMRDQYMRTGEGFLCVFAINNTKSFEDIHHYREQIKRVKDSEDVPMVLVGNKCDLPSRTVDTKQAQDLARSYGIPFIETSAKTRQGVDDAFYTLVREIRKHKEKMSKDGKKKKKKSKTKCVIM
Sequence of KRAS G12D binding to BRAF (P62937 whole entry): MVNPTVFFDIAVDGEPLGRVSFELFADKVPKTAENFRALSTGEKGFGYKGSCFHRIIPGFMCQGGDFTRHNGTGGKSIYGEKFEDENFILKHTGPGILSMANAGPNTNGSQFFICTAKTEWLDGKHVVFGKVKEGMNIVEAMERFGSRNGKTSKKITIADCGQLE
Sequence of KRAS G12C-BRAF complex (P01116-2 other isoform, or with tags, fused parts or gaps G12C): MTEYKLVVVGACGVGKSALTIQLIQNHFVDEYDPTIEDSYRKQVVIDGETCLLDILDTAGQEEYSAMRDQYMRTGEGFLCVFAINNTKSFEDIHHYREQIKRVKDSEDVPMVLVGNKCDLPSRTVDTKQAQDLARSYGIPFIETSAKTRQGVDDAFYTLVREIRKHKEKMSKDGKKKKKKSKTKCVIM
Sequence of KRAS G12C-BRAF complex (P62937 whole entry): as the sequence (P62937 whole entry) above

Row | SMILES | pIC50 [1] | pIC50 [2] | pIC50 [3] | pIC50 [4] | pIC50 [5] | pIC50 [6]
1 | CCn1c(-c2cc(N3CCOCC3)cnc2[C@H](C)OC)c2c3cc(c(F)cc31)-c1csc(n1)C[C@H](NC(=O)[C@H](C(C)C)N1CCC3(CN(C(=O)[C@H](F)Cl)C3)C1=O)C(=O)N1CCC[C@H](N1)C(=O)OCC(C)(C)C2 (atropisomer, axis not shown; (M)) [Example 52, (2S)-2-[2-[(2R)-2-chloro-2-fluoro-acetyl]-5-oxo-2,6-diazaspiro[3.4]octan-6-yl]-N-[(7S,13S)-21-ethyl-24-fluoro-(20M)-20-[2-[(1S)-1-methoxyethyl]-5-morpholino-3-pyridyl]-17,17-dimethyl-8,14-dioxo-15-oxa-4-thia-9,21,27,28-tetrazapentacyclo[17.5.2.1^2,5.1^9,13.0^22,26]octacosa-1(25),2,5(28),19,22(26),23-hexaen-7-yl]-3-methyl-butanamide] | > 9.00 | 6.71 | 6.94 | 5.69 | 8.40 | 6.99
2 | CCn1c(-c2cc(N3CCOCC3)cnc2[C@H](C)OC)c2c3cc(c(F)cc31)-c1csc(n1)C[C@H](NC(=O)[C@H](C(C)C)N1CC[C@@]3(CCN(C(=O)[C@H](F)Cl)C3)C1=O)C(=O)N1CCC[C@H](N1)C(=O)OCC(C)(C)C2 (atropisomer, axis not shown; (M)) [Example 53, (2S)-2-[(5R)-7-[(2R)-2-chloro-2-fluoro-acetyl]-1-oxo-2,7-diazaspiro[4.4]nonan-2-yl]-N-[(7S,13S)-21-ethyl-24-fluoro-(20M)-20-[2-[(1S)-1-methoxyethyl]-5-morpholino-3-pyridyl]-17,17-dimethyl-8,14-dioxo-15-oxa-4-thia-9,21,27,28-tetrazapentacyclo[17.5.2.1^2,5.1^9,13.0^22,26]octacosa-1(25),2,5(28),19,22(26),23-hexaen-7-yl]-3-methyl-butanamide] | > 9.00 | 6.03 | 7.25 | < 5.00 | 8.52 | 7.34
3 | CCn1c(-c2cc(N3CCOCC3)cnc2[C@H](C)OC)c2c3cc(c(F)cc31)-c1csc(n1)C[C@H](NC(=O)[C@H](C(C)C)N(C)C(=O)C1(F)CCN(C(=O)[C@H](F)Cl)CC1)C(=O)N1CCC[C@H](N1)C(=O)OCC(C)(C)C2 (atropisomer, axis not shown; (M)) [Example 54, 1-[(2R)-2-chloro-2-fluoro-acetyl]-N-[(1S)-1-[[(7S,13S)-21-ethyl-24-fluoro-(20M)-20-[2-[(1S)-1-methoxyethyl]-5-morpholino-3-pyridyl]-17,17-dimethyl-8,14-dioxo-15-oxa-4-thia-9,21,27,28-tetrazapentacyclo[17.5.2.1^2,5.1^9,13.0^22,26]octacosa-1(25),2,5(28),19,22(26),23-hexaen-7-yl]carbamoyl]-2-methyl-propyl]-4-fluoro-N-methyl-piperidine-4-carboxamide] | > 9.00 | 7.89 | 7.72 | 6.52 | 8.70 | 7.60
4 | CCn1c(-c2cc(N3CCOCC3)cnc2[C@H](C)OC)c2c3cc(c(F)cc31)-c1csc(n1)C[C@H](NC(=O)[C@H](C(C)C)N(C)C(=O)[C@H]1CCN(C(=O)[C@H](F)Cl)C1)C(=O)N1CCC[C@H](N1)C(=O)OCC(C)(C)C2 (atropisomer, axis not shown; (M)) [Example 55, (3S)-1-[(2R)-2-chloro-2-fluoro-acetyl]-N-[(1S)-1-[[(7S,13S)-21-ethyl-24-fluoro-(20M)-20-[2-[(1S)-1-methoxyethyl]-5-morpholino-3-pyridyl]-17,17-dimethyl-8,14-dioxo-15-oxa-4-thia-9,21,27,28-tetrazapentacyclo[17.5.2.1^2,5.1^9,13.0^22,26]octacosa-1(25),2,5(28),19,22(26),23-hexaen-7-yl]carbamoyl]-2-methyl-propyl]-N-methyl-pyrrolidine-3-carboxamide] | > 8.52 | 6.81 | 7.40 | < 5.00 | 8.22 | 6.97
5 | CO[C@@H](C)c1ncc(N2CCN(C)CC2)cc1-c1c2c3cc(c(F)cc3n1CC(F)(F)F)-c1csc(n1)C[C@H](NC(=O)[C@H](C(C)C)N1CCC[C@@]3(CCN(C(=O)[C@H](F)Cl)C3)C1=O)C(=O)N1CCC[C@H](N1)C(=O)OCC(C)(C)C2 (single isomer, unassigned) [Example 16] | > 9.00 | 7.66 | 7.00 | < 5.00 | 9.00 | 7.72
6 | CO[C@@H](C)c1ncc(N2CCN(C)CC2)cc1-c1c2c3cc(c(F)cc3n1CC(F)(F)F)-c1csc(n1)C[C@H](NC(=O)[C@H](C(C)C)N1CCC[C@]3(CCN(C(=O)[C@H](F)Cl)C3)C1=O)C(=O)N1CCC[C@H](N1)C(=O)OCC(C)(C)C2 (single isomer, unassigned) [Example 18] | 9.00 | 7.72 | 7.15 | 5.78 | 8.52 | 7.59
7 | CC(C)[C@@H](C(=O)N[C@H]1Cc2cc(O)cc(c2)-c2ccc3c(C(C)(C)C#N)cn(c3c2)CC(C)(C)COC(=O)[C@@H]2CCCN(N2)C1=O)N1CCC2(CN(C(=O)CCl)C2)C1=O [RM44, reference compound] | 6.10 | < 5.00 | 7.77 | < 5.00 | 5.72 | < 5.00
